# Data: US7632952B2, “Benzothiazoles and the use thereof as medicaments” (Aventis Pharma S.A., priority 2004, dated 2009)
# Counter-ions that a name gives are not always drawn.
# Target: CDK2/cyclin E (Homo sapiens, UniProt P24941)
# Assay: CDK2/cyclin E Flashplate test in 96-well format
# Assay type: biochemical
# Conditions: read-out: CDK2 IC50
# Summary of the method: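 CDK2/cyclin E-(His)6 from baculovirus-coinfected Sf21 cells was IMAC-purified. Kinase reaction used biotinylated pRb peptide (10 μM final), [γ-33P]ATP in HEPES pH 7.5 with Mg2+ and DTT, at 30 °C in streptavidin Flashplates. 33P incorporation was scintillation counted and IC50 determined.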
row,IC50 [nM],SMILES
1,25,"CC(C)NCCNc1ccc(S(=O)(=O)Oc2ccc3nc(NC(=O)C4CC4)sc3c2)cc1 [Example 53, 4-(2-isopropylaminoethylamino)benzenesulfonic 2-(cyclopropanecarbonylamino)benzothiazol-6-yl ester hydrochloride]"
2,79,"CC(C)(O)CNc1ccc(S(=O)(=O)Oc2ccc3nc(NC(=O)CCc4cccnc4)sc3c2)cc1 [Example 63, 4-(2-hydroxy-2-methylpropylamino)benzene-sulfonic acid 2-(3-pyrid-3-ylpropionylamino)benzothiazol-6-yl ester hydro-chloride]"
3,108,"COCC(=O)Nc1nc2ccc(OS(=O)(=O)c3ccc(NCCN(C(C)C)C(C)C)cc3)cc2s1 [Example 44, 4-(2-Diisopropylaminoethylamino)benzenesulfonic acid 2-(2-methoxyacetylamino)benzothiazol-6-yl ester]"
4,92,"CNc1ccc(S(=O)(=O)Oc2ccc3nc(NC(=O)C4CC4)sc3c2)cc1 [Example 10, 4-methylaminobenzenesulfonic 2-(cyclopropane-carbonylamino)benzothiazol-6-yl ester]"
5,19,"CC(C)(O)CNc1ccc(S(=O)(=O)Oc2ccc3nc(NC(=O)C4CC4)sc3c2)cc1 [Example 11, 4-(2-hydroxy-2-methylpropylamino)benzene-sulfonic 2-(cyclopropanecarbonylamino)benzothiazol-6-yl ester]"
6,49,"CC(=O)Nc1nc2ccc(OS(=O)(=O)c3ccc(NCCN(C(C)C)C(C)C)cc3)cc2s1 [Example 43, 4-(2-Diisopropylaminoethylamino)benzenesulfonic acid 2-acetylaminobenzothiazol-6-yl ester]"
7,68,"O=C(Nc1nc2ccc(OS(=O)(=O)c3ccc(NCCCn4ccnc4)cc3)cc2s1)C1CC1 [Example 9, 4-(3-imidazol-1-ylpropylamino)benzenesulfonic 2-(cyclopropanecarbonylamino)benzothiazol-6-yl ester]"
8,73,"CC(C)C(=O)Nc1nc2ccc(OS(=O)(=O)c3ccc(NCCN(C(C)C)C(C)C)cc3)cc2s1 [Example 55, 4-(2-diisopropylaminoethylamino)benzenesulfonic acid 2-isobutyrylaminobenzothiazol-6-yl ester hydrochloride]"
9,40,"CCC(=O)Nc1nc2ccc(OS(=O)(=O)c3ccc(NCCN(C(C)C)C(C)C)cc3)cc2s1 [Example 57, 4-(2-diisopropylaminoethylamino)benzenesulfonic acid 2-propionylaminobenzothiazol-6-yl ester hydrochloride]"
10,105,"CC(C)N(CCNc1ccc(S(=O)(=O)Oc2ccc3nc(NC(=O)C4CCC4)sc3c2)cc1)C(C)C [Example 60, 4-(2-diisopropylaminoethylamino)benzenesulfonic acid 2-(cyclobutanecarbonylamino)benzothiazol-6-yl ester hydrochloride]"
11,> 10000,"O=C(Nc1nc2ccc(OS(=O)(=O)c3ccc(-c4ccccn4)s3)cc2s1)C1CC1 [Example 85, 5-pyridin-2-ylthiophene-2-sulfonic acid 2-(cyclopropanecarbonylamino)benzothiazol-6-yl ester]"
12,107,"CC(=O)Nc1nc2ccc(OS(=O)(=O)c3ccc(NCCNC(C)C)cc3)cc2s1 [Example 65, 4-(2-isopropylaminoethylamino)benzenesulfonic acid 2-acetylaminobenzothiazol-6-yl ester]"
13,25,"CC(C)N(CCNc1ccc(S(=O)(=O)Oc2ccc3nc(NC(=O)C4CC4)sc3c2)cc1)C(C)C [Example 12, 4-(2-diisopropylaminoethylamino)benzenesulfonic 2-(cyclopropanecarbonylamino)benzothiazol-6-yl ester]"
14,> 10000,"CC(C)N(CCNc1ccc(S(=O)(=O)Oc2ccc3nc(NC(=O)C4(N)CCCC4)sc3c2)cc1)C(C)C [Example 41, 4-(2-diisopropylaminoethylamino)benzenesulfonic acid 2-[(1-aminocyclopentanecarbonyl)amino]benzothiazol-6-yl ester]"
15,136,"CC(C)N(CCNc1ccc(S(=O)(=O)Oc2ccc3nc(NC(=O)C4CCCC4)sc3c2)cc1)C(C)C [Example 45, 4-(2-Diisopropylaminoethylamino)benzenesulfonic acid 2-(cyclo-pentanecarbonylamino)benzothiazol-6-yl ester]"
16,105,"CC(C)(CNc1ccc(S(=O)(=O)Oc2ccc3nc(NC(=O)C4CC4)sc3c2)cc1)OP(=O)(O)O [Example 89, 4-(2-methyl-2-phosphonooxypropylamino)benzene-sulfonic acid 2-(cyclopropanecarbonylamino)benzothiazol-6-yl ester]"
17,6980,"O=C(Nc1nc2ccc(OS(=O)(=O)c3cccs3)cc2s1)C1CC1 [Example 33h, Thiophene-2-sulfonic acid 2-(cyclopro-panecarbonylamino)benzothiazol-6-yl ester]"
